Measurements published in EPA's ToxValDB 9.5 (doi:10.2903/j.efsa.2006.66r).

Experiments:
Colinus virginianus = settings: reproduction developmental; duration: 21 weeks; oral; diet; reproduction
Poecilus cupreus = settings: not reported; mortality
Daphnia magna = settings: chronic/long-term; duration: 21 days; reproduction
Oncorhynchus mykiss = settings: chronic/long-term; duration: 21 days; mortality
Rattus norvegicus = settings: for NOAEL: neurology
Canidae = settings: subchronic; duration: 90 days; oral; Dog Other; neurology
Tagia sp. = settings: chronic/long-term; duration: 56 days

CCCSP(=O)(OCC)SCCC [Ethoprop]
NOEC (Colinus virginianus): < 0.6 mg/kg-day | LEL (Poecilus cupreus): 7000 g/ha | NOEC (Daphnia magna): 0.002 mg/L | NOEC (Oncorhynchus mykiss): 0.064 mg/L | NOAEL (Rattus norvegicus; acute, oral): 1 mg/kg-day | NOAEL (Rattus norvegicus; chronic, duration: 2 years): 0.04 mg/kg-day | NOEL (Rattus norvegicus; reproduction developmental, reproduction): 1.3 mg/kg-day | NOAEL (Rattus norvegicus; short-term, duration: 28 days, oral): 0.1 mg/kg-day | NOAEL (Canidae): 0.1 mg/kg-day | NOEC (Tagia sp.): < 1.67 mg/kg
